According to patent US9687571B2, “Stabilization of radiopharmaceutical compositions using ascorbic acid” (Lantheus Medical Imaging, Inc., priority 2009, dated 2017):

Tests used:
[1] = Effect of ascorbic acid concentration on radiochemical purity (Example 4); type: physicochemical; conditions: pH 5.8, FIG. 3
Method: The integrity of a radiopharmaceutical is measured by the radiochemical purity (RCP) of the radiolabeled compound using ITLC or more preferably HPLC. The advantage of using HPLC is that radio-impurities caused by radiolytic degradation can be separated from the radiopharmaceutical under certain chromatographic conditions. […] The radiopharmaceutical compositions of this invention are effective in maintaining the stability of samples for up to ten hours.
This example describes the effect of ascorbic acid concentration on radiochemical purity. In this example, the radiochemical purity (RCP) of the ^18F-labeled drug product (2-tert-butyl-4-chloro-5-[4-(2-[^18F]fluoro-ethoxymethyl)-benzyloxy]-2H-pyridazin-3-one) was monitored for solutions having an ascorbic acid concentration range from 200 mg/mL (saturation level) to 20 mg/mL, at pH 5.8.

[2] = Acid/base and solution properties of ascorbic acid; type: physicochemical; conditions: aqueous dose solution, pH 5.8

| radiochemical purity (RCP) level ([1]; ascorbic acid 200 to 50 mg/mL) | saturation level (concentration) [2] | SMILES | radiochemical purity (RCP) level ([1]; ascorbic acid 20 mg/mL) |
| --- | --- | --- | --- |
| do not significantly change |  | CC(C)(C)n1ncc(OCc2ccc(COCC[18F])cc2)c(Cl)c1=O [2-tert-butyl-4-chloro-5-[4-(2-[^18F]fluoro-ethoxymethyl)-benzyloxy]-2H-pyridazin-3-one] | increase in impurities (i.e., lower RCP level) |
|  | 200 mg/mL | O=C1O[C@H]([C@@H](O)CO)C(O)=C1O [Ascorbic acid] |  |
